How the values were obtained:
Assay type in all cases: cell-based
TMD8 = test: Combined drug treatment cell viability (CellTiter-Glo), ibrutinib with BET inhibitors, TMD8; details: JQ1 20 nM, 3 days
Experimental: (§1) The DLBCL cell lines used during the experiments included TMD8, OCI-LY3, OCI-LY10, U-2932 and SU-DHL-2. DLBCL cells at either 1×10^4 cells or 2×10^4 cells were plated onto each well of a 96-W plate (Table 1). […] The 96-W plate was then incubated for 3 days. Cell viability was examined using a CellTiter-Glo assay. A 40 μL of CellTiter-Glo reagent was added directly into each well of the 96-W plate. The plate was then shaken on a Shaker ([…]) at speed 5 for 10-20 min at room temperature. Next, about 100 μL of the mixed medium was transferred to a white, non-transparent, flat bottom 96-W plate for assaying. […] Measurements were taken at room temperature. CellTiter-Glow reagents were thawed prior to use. Cells pre-plated onto a second 96-W plate and incubated at room temperature for 30 minutes were used for calibration purposes. […] CI is a quantitative description of the interaction property of the combination of two drugs.

OCI-LY10 = test: Combined drug treatment cell viability (CellTiter-Glo), ibrutinib with BET inhibitors, OCI-LY10; details: OCI-LY-10, JQ1 1 uM, 3 days
Experimental: as §1

OCI-LY3 = test: Combined drug treatment cell viability (CellTiter-Glo), ibrutinib with BET inhibitors, OCI-LY3; details: OCI-LY-3, JQ1 1 uM, 3 days
Experimental: as §1

U-2932 = test: Combined drug treatment cell viability (CellTiter-Glo), ibrutinib with BET inhibitors, U-2932; details: U2932, JQ1 20 nM, 3 days
Experimental: as §1

SU-DHL-2 = test: Combined drug treatment cell viability (CellTiter-Glo), ibrutinib with BET inhibitors, SU-DHL-2; details: JQ1 100 nM, 3 days
Experimental: as §1

[1] = ibrutinib 0 nM (BET inhibitor alone): I-BET151 200 nM, OTX015 100 nM
[2] = ibrutinib 0.0256 nM with I-BET151 200 nM, OTX015 100 nM or medium alone (row)
[3] = ibrutinib 0.64 nM with I-BET151 200 nM, OTX015 100 nM or medium alone (row)
[4] = ibrutinib 3.2 nM with I-BET151 200 nM, OTX015 100 nM or medium alone (row)
[5] = ibrutinib 16 nM with I-BET151 200 nM, OTX015 100 nM or medium alone (row)
[6] = ibrutinib 80 nM with I-BET151 200 nM, OTX015 100 nM or medium alone (row)
[7] = ibrutinib 400 nM with I-BET151 200 nM, OTX015 100 nM or medium alone (row)
[8] = ibrutinib 2000 nM with I-BET151 200 nM, OTX015 100 nM or medium alone (row)
[9] = ibrutinib 10000 nM with I-BET151 200 nM, OTX015 100 nM or medium alone (row)
[10] = ibrutinib […] with I-BET151 200 nM, OTX015 100 nM or medium alone (row)
[11] = ibrutinib 0 nM (BET inhibitor alone): I-BET151 5 uM, OTX015 1 uM
[12] = ibrutinib 0.0256 nM with I-BET151 5 uM, OTX015 1 uM or medium alone (row)
[13] = ibrutinib 0.64 nM with I-BET151 5 uM, OTX015 1 uM or medium alone (row)
[14] = ibrutinib 3.2 nM with I-BET151 5 uM, OTX015 1 uM or medium alone (row)
[15] = ibrutinib 16 nM with I-BET151 5 uM, OTX015 1 uM or medium alone (row)
[16] = ibrutinib 80 nM with I-BET151 5 uM, OTX015 1 uM or medium alone (row)
[17] = ibrutinib 400 nM with I-BET151 5 uM, OTX015 1 uM or medium alone (row)
[18] = ibrutinib 2000 nM with I-BET151 5 uM, OTX015 1 uM or medium alone (row)
[19] = ibrutinib 10000 nM with I-BET151 5 uM, OTX015 1 uM or medium alone (row)
[20] = ibrutinib […] with I-BET151 5 uM, OTX015 1 uM or medium alone (row)
[21] = ibrutinib 0 nM (BET inhibitor alone): I-BET151 200 nM, OTX015 50 nM (Table 2)
[22] = ibrutinib 0.0256 nM with I-BET151 200 nM, OTX015 50 nM (Table 2) or medium alone (row)
[23] = ibrutinib 0.64 nM with I-BET151 200 nM, OTX015 50 nM (Table 2) or medium alone (row)
[24] = ibrutinib 3.2 nM with I-BET151 200 nM, OTX015 50 nM (Table 2) or medium alone (row)
[25] = ibrutinib 16 nM with I-BET151 200 nM, OTX015 50 nM (Table 2) or medium alone (row)
[26] = ibrutinib 80 nM with I-BET151 200 nM, OTX015 50 nM (Table 2) or medium alone (row)
[27] = ibrutinib 400 nM with I-BET151 200 nM, OTX015 50 nM (Table 2) or medium alone (row)
[28] = ibrutinib 2000 nM with I-BET151 200 nM, OTX015 50 nM (Table 2) or medium alone (row)
[29] = ibrutinib 10000 nM with I-BET151 200 nM, OTX015 50 nM (Table 2) or medium alone (row)
[30] = ibrutinib […] with I-BET151 200 nM, OTX015 50 nM (Table 2) or medium alone (row)
[31] = ibrutinib 0 nM (BET inhibitor alone): I-BET151 2 uM, OTX015 1 uM (Table 2)
[32] = ibrutinib 0.0256 nM with I-BET151 2 uM, OTX015 1 uM (Table 2) or medium alone (row)
[33] = ibrutinib 10000 nM with I-BET151 2 uM, OTX015 1 uM (Table 2) or medium alone (row)
[34] = ibrutinib […] with I-BET151 2 uM, OTX015 1 uM (Table 2) or medium alone (row)

COc1cc2c(cc1-c1c(C)noc1C)ncc1[nH]c(=O)n([C@H](C)c3ccccn3)c12 [I-BET151]
luminescent signals (TMD8; [1]): 53526.63 | luminescent signals (TMD8; [2]): 14177.65 | luminescent signals (TMD8; [3]): 12722.72 | luminescent signals (TMD8; [4]): 11655.25 | luminescent signals (TMD8; [5]): 11328.42 | luminescent signals (TMD8; [6]): 11526.1 | luminescent signals (TMD8; [7]): 11191.36 | luminescent signals (TMD8; [8]): 11183.45 | luminescent signals (TMD8; [9]): 6995.257 | luminescent signals (TMD8; [10]): 13950.98 | luminescent signals (OCI-LY10; [11]): 43633.29 | luminescent signals (OCI-LY10; [12]): 41108.85 | luminescent signals (OCI-LY10; [13]): 38594.93 | luminescent signals (OCI-LY10; [14]): 31834.18 | luminescent signals (OCI-LY10; [15]): 23382.58 | luminescent signals (OCI-LY10; [16]): 21683.85 | luminescent signals (OCI-LY10; [17]): 21781.14 | luminescent signals (OCI-LY10; [18]): 22475.36 | luminescent signals (OCI-LY10; [19]): 21920.51 | luminescent signals (OCI-LY10; [20]): 38721.15 | luminescent signals (OCI-LY3; [11]): 14156.55 | luminescent signals (OCI-LY3; [12]): 15418.7 | luminescent signals (OCI-LY3; [13]): 15156.3 | luminescent signals (OCI-LY3; [14]): 13849.54 | luminescent signals (OCI-LY3; [15]): 14914.89 | luminescent signals (OCI-LY3; [16]): 13899.4 | luminescent signals (OCI-LY3; [17]): 15392.46 | luminescent signals (OCI-LY3; [18]): 13151.56 | luminescent signals (OCI-LY3; [19]): 14424.2 | luminescent signals (OCI-LY3; [20]): 12962.63 | luminescent signals (U-2932; [21]): 50367.82 | luminescent signals (U-2932; [22]): 45116.29 | luminescent signals (U-2932; [23]): 42565.61 | luminescent signals (U-2932; [24]): 43472.05 | luminescent signals (U-2932; [25]): 43980.61 | luminescent signals (U-2932; [26]): 43659.14 | luminescent signals (U-2932; [27]): 44468.08 | luminescent signals (U-2932; [28]): 42568.25 | luminescent signals (U-2932; [29]): 32015.12 | luminescent signals (U-2932; [30]): 44167.69 | luminescent signals (SU-DHL-2; [31]): 793.343 | luminescent signals (SU-DHL-2; [32]): 714.534 | luminescent signals (SU-DHL-2; ibrutinib 0.64 nM with I-BET151 2 uM, OTX015 1 uM (Table 2) or medium alone (row)): 704.027 | luminescent signals (SU-DHL-2; ibrutinib 3.2 nM with I-BET151 2 uM, OTX015 1 uM (Table 2) or medium alone (row)): 809.105 | luminescent signals (SU-DHL-2; ibrutinib 16 nM with I-BET151 2 uM, OTX015 1 uM (Table 2) or medium alone (row)): 843.256 | luminescent signals (SU-DHL-2; ibrutinib 80 nM with I-BET151 2 uM, OTX015 1 uM (Table 2) or medium alone (row)): 922.065 | luminescent signals (SU-DHL-2; ibrutinib 400 nM with I-BET151 2 uM, OTX015 1 uM (Table 2) or medium alone (row)): 798.597 | luminescent signals (SU-DHL-2; ibrutinib 2000 nM with I-BET151 2 uM, OTX015 1 uM (Table 2) or medium alone (row)): 717.161 | luminescent signals (SU-DHL-2; [33]): 585.813 | luminescent signals (SU-DHL-2; [34]): 835.375

Cc1sc2c(c1C)C(c1ccc(Cl)cc1)=N[C@@H](CC(=O)Nc1ccc(O)cc1)c1nnc(C)n1-2 [OTX015]
luminescent signals (TMD8; [1]): 47319.47 | luminescent signals (TMD8; [2]): 11004.22 | luminescent signals (TMD8; [3]): 9847.13 | luminescent signals (TMD8; [4]): 9773.329 | luminescent signals (TMD8; [5]): 9272.538 | luminescent signals (TMD8; [6]): 9472.854 | luminescent signals (TMD8; [7]): 9301.531 | luminescent signals (TMD8; [8]): 10927.78 | luminescent signals (TMD8; [9]): 7055.879 | luminescent signals (TMD8; [10]): 11191.36 | luminescent signals (OCI-LY10; [11]): 45142.68 | luminescent signals (OCI-LY10; [12]): 42481.51 | luminescent signals (OCI-LY10; [13]): 40790.66 | luminescent signals (OCI-LY10; [14]): 33872.14 | luminescent signals (OCI-LY10; [15]): 29764.67 | luminescent signals (OCI-LY10; [16]): 25880.72 | luminescent signals (OCI-LY10; [17]): 25433.68 | luminescent signals (OCI-LY10; [18]): 24952.47 | luminescent signals (OCI-LY10; [19]): 23945.32 | luminescent signals (OCI-LY10; [20]): 42647.18 | luminescent signals (OCI-LY3; [11]): 12422.08 | luminescent signals (OCI-LY3; [12]): 14387.47 | luminescent signals (OCI-LY3; [13]): 13925.64 | luminescent signals (OCI-LY3; [14]): 14043.72 | luminescent signals (OCI-LY3; [15]): 13776.07 | luminescent signals (OCI-LY3; [16]): 14290.38 | luminescent signals (OCI-LY3; [17]): 15615.51 | luminescent signals (OCI-LY3; [18]): 15793.94 | luminescent signals (OCI-LY3; [19]): 14418.95 | luminescent signals (OCI-LY3; [20]): 12918.02 | luminescent signals (U-2932; [21]): 55416.46 | luminescent signals (U-2932; [22]): 53427.04 | luminescent signals (U-2932; [23]): 50299.31 | luminescent signals (U-2932; [24]): 45013.52 | luminescent signals (U-2932; [25]): 49095.12 | luminescent signals (U-2932; [26]): 44565.57 | luminescent signals (U-2932; [27]): 48570.75 | luminescent signals (U-2932; [28]): 44022.77 | luminescent signals (U-2932; [29]): 33140.26 | luminescent signals (U-2932; [30]): 51182.03 | luminescent signals (SU-DHL-2; [31]): 945.707 | luminescent signals (SU-DHL-2; [32]): 1016.636 | luminescent signals (SU-DHL-2; [33]): 782.836 | luminescent signals (SU-DHL-2; [34]): 1087.564

Source: patent publication US20160022684A1, “BET INHIBITOR AND BRUTON'S TYROSINE KINASE INHIBITOR COMBINATIONS” (Pharmacyclics LLC, priority 2014, published 2016)
